Data published in EPA's ToxRefDB 2.

Assays:
[1] = test system: rat; settings: Prenatal developmental toxicity study, sprague dawley, Oral, Gavage/Intubation, dose end: 15 GD
[2] = test system: rat; settings: Subchronic oral toxicity in rodents, sprague dawley, Feed, dose end: 90 day, group: systemic, systemic / in life observation / body weight / body weight + systemic / in life observation / body weight / body weight gain + systemic / in…
[3] = test system: mouse; settings: Carcinogenicity, cd1, Oral, Feed, dose end: 81 week, group: systemic
[4] = test system: rat; settings: Subchronic oral toxicity in rodents, sprague dawley, Feed, dose end: 90 day, group: systemic
[5] = test system: rat; settings: Combined chronic toxicity/carcinogenicity, sprague dawley, Oral, [Not Specified], dose end: 2 year, group: systemic
[6] = test system: rat; settings: Multigenerational reproductive toxicity study, sprague dawley, Oral, Feed, dose end: 2 generation; for LOAEL: systemic / organ weight / brain / nos
[7] = test system: mouse; settings: Subchronic oral toxicity in rodents, other, Feed, dose end: 90 day, group: systemic
[8] = test system: dog; settings: Chronic toxicity, beagle, Oral, Capsule, dose end: 12 month, group: systemic
[9] = test system: rat; settings: Subchronic oral toxicity in rodents, sprague dawley, Feed, dose end: 90 day, group: systemic; remark: listed apart in the source
[10] = test system: rat; settings: Subchronic oral toxicity in rodents, sprague dawley, Feed, dose end: 93 day, group: systemic
[11] = group: developmental, developmental / developmental malformation / bone / incomplete ossification + systemic / in life observation / body weight / fetal weight
[12] = group: maternal, systemic / in life observation / body weight / body weight gain + systemic / in life observation / food consumption / food consumption
[13] = systemic / in life observation / body weight / body weight + systemic / in life observation / body weight / body weight gain + systemic / in…
[14] = systemic / organ weight / liver / relative to body weight + systemic / pathology microscopic / liver / cytoplasmic alteration + systemic / …
[15] = group: offspring, systemic / organ weight / brain / nos + systemic / in life observation / body weight / offspring (pup) weight + systemic / organ weight / …
[16] = systemic / organ weight / liver / relative to brain weight + systemic / pathology gross / liver / [other] + systemic / pathology microscopic…
[17] = systemic / pathology microscopic / spleen / pigmentation
[18] = systemic / clinical chemistry / alkaline phosphatase (alp/alk) / alkaline phosphatase (alp/alk) + systemic / clinical chemistry / …
[19] = systemic / clinical chemistry / alkaline phosphatase (alp/alk) / alkaline phosphatase (alp/alk) + systemic / in life observation / clinical …
[20] = systemic / organ weight / liver / absolute + systemic / organ weight / liver / relative to body weight + systemic / organ weight / liver / …
[21] = systemic / pathology gross / liver / [other] + systemic / pathology microscopic / thyroid gland / colloid content
[22] = systemic / clinical chemistry / cholesterol / cholesterol + systemic / organ weight / liver / absolute + systemic / organ weight / liver / …
[23] = systemic / pathology gross / liver / enlarged

In the case of CSC1=N[C@@](C)(c2ccccc2)C(=O)N1Nc1ccccc1 [Fenamidone], the LEL [1, 11] is reported as 1000 mg/kg/day, the LOAEL [1, 11] is reported as 1000 mg/kg/day and the NEL [1, 11] is reported as 150 mg/kg/day. For the same compound, the NOAEL [1, 11] was 150 mg/kg/day, the LEL [1, 12] was 1000 mg/kg/day and the LOAEL [1, 12] was 1000 mg/kg/day. For the same compound, the NEL [1, 12] was 150 mg/kg/day, the NOAEL [1, 12] was 150 mg/kg/day and the LEL [2] was 305 mg/kg/day. The LOAEL [2] was 305 mg/kg/day, the NEL [2] was 29.7 mg/kg/day and the NOAEL [2] was 29.7 mg/kg/day. It also gave an LOAEL [3, 13] of 526 mg/kg/day, an NEL [3, 13] of 9.5 mg/kg/day and an NOAEL [3, 13] of 47.5 mg/kg/day. For the same compound, the LEL ([3]; systemic / organ weight / liver / nos) was 47.5 mg/kg/day, the LEL ([4]; systemic / clinical chemistry / aspartate aminotransferase (ast/sgot) / aspartate aminotransferase (ast/sgot)) was 10.4 mg/kg/day and the LOAEL ([4]; systemic / organ weight / liver / relative to body weight + systemic / pathology microscopic / liver / cytoplasmic alteration) was 68.3 mg/kg/day. The NEL [4, 14] was 4.05 mg/kg/day, the NOAEL [4, 14] was 10.4 mg/kg/day and the NEL ([5]; systemic / organ weight / uterus / absolute + systemic / organ weight / uterus / relative to body weight) was 335 mg/kg/day. For the same compound, the LOAEL ([5]; systemic / pathology microscopic / thyroid gland / hyperplasia) was 7.07 mg/kg/day, the NOAEL ([5]; systemic / pathology microscopic / thyroid gland / hyperplasia + systemic / clinical chemistry / alanine aminotransferase (alt/sgpt) / …) was 2.83 mg/kg/day and the LOAEL ([6]; group: offspring) was 89.2 mg/kg/day. For the same compound, the LEL ([6]; group: offspring, systemic / organ weight / brain / nos + systemic / in life observation / body weight / offspring (pup) weight) was 89.2 mg/kg/day, the NEL [6, 15] was 5.45 mg/kg/day and the NOAEL [6, 15] was 5.45 mg/kg/day. It also gave an LEL ([6]; group: parental, systemic / in life observation / food consumption / food consumption) of 63.8 mg/kg/day, an NEL ([6]; group: parental, systemic / in life observation / food consumption / food consumption + systemic / in life observation / body weight / body weight + systemic…) of 3.9 mg/kg/day and an LOAEL ([6]; group: parental) of 89.2 mg/kg/day. It also gave an NOAEL ([6]; group: parental, systemic / organ weight / brain / nos + systemic / in life observation / body weight / body weight + systemic / organ weight / liver / …) of 5.45 mg/kg/day, an LOAEL [7, 16] of 220 mg/kg/day and an NOAEL [7, 16] of 44.5 mg/kg/day. The LEL [7, 17] was 11.3 mg/kg/day, the NEL [7, 17] was under 11.3 mg/kg/day and the LEL [8, 18] was 1000 mg/kg/day. The LOAEL [8, 18] was 1000 mg/kg/day, the NEL [8, 19] was 100 mg/kg/day and the NOAEL [8, 19] was 100 mg/kg/day. For the same compound, the LOAEL [9, 20] was 32.9 mg/kg/day, the NOAEL [9, 20] was 6.42 mg/kg/day and the LEL [9, 21] was 6.42 mg/kg/day. For the same compound, the NEL [9, 21] was under 6.42 mg/kg/day, the LOAEL [10, 22] was 93.3 mg/kg/day and the NOAEL [10, 22] was 9.4 mg/kg/day. It also gave an LEL [10, 23] of 9.4 mg/kg/day and an NEL [10, 23] of under 9.4 mg/kg/day.
